Results reported in the NIST ThermoML archive (doi:10.1016/j.jct.2014.01.007).
± gives the expanded uncertainty stated by the source.

Assays:
[1] = for mass density: 101.33 kPa; for Triple point temperature: DTA
[2] = molar enthalpy of vaporization or sublimation; settings: 298.15 K; Liquid; Static calorimetry
[3] = Molar enthalpy of transition or fusion; settings: DSC

| Compound | mass density ([1]; 288.15 K, Liquid, Vibrating tube method) [kg/m3] | mass density ([1]; 293.15 K, Liquid, Vibrating tube method) [kg/m3] | mass density ([1]; 298.14 K, Liquid, Vibrating tube method) [kg/m3] | mass density ([1]; 303.15 K, Liquid, Vibrating tube method) [kg/m3] | mass density ([1]; 308.15 K, Liquid, Vibrating tube method) [kg/m3] | molar enthalpy [2] [kcal/mol] | mass density ([1]; 167 K, Crystal 2, X-ray diffraction) [kg/m3] | mass density ([1]; 251 K, Crystal 1, X-ray diffraction) [kg/m3] | Triple point temperature ([1]; Crystal 1) [K] | Triple point temperature ([1]; Crystal 2) [K] | Molar enthalpy of transition or fusion ([3]; Crystal 1) [kcal/mol] | Molar enthalpy of transition or fusion ([3]; Crystal 2) [kcal/mol] |
| --- | --- | --- | --- | --- | --- | --- | --- | --- | --- | --- | --- | --- |
| CN(C)C(=N)N(C)C [1,1,3,3-tetramethylguanidine] | 921.517 ± 0.12 | 917.012 ± 0.12 | 912.5 ± 0.12 | 907.982 ± 0.12 | 903.458 ± 0.12 | 11.9 ± 0.359 |  |  |  |  |  |  |
| CN(C)C(N)=[N+](C)C.O=[N+]([O-])[O-] [tetramethylguanidinium nitrate] |  |  |  |  |  |  | 1295 ± 7 | 1284 ± 7 | 365.9 ± 0.5 | 221.4 ± 1.7 | 4.74 ± 0.122 | 0.159 ± 0.0335 |
